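Each compound was tested at five concentrations against cells in 96-well plates for 48 hours. GI50 marks 50% less growth. The concentration for full growth arrest is given as TGI.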
Columns and labels:
Test in all cases: DTP human tumour cell line panel, 48 h
[1] = tested on: 786-0 renal
[2] = tested on: A498 renal
[3] = tested on: A549 NSCLC
[4] = tested on: ACHN renal
[5] = tested on: BT-549 breast
[6] = tested on: CAKI-1 renal
[7] = tested on: CCRF-CEM leukemia
[8] = tested on: COLO 205 colon
[9] = tested on: DU-145 prostate
[10] = tested on: EKVX NSCLC
[11] = tested on: HCC-2998 colon
[12] = tested on: HCT-116 colon
[13] = tested on: HCT-15 colon
[14] = tested on: HL-60(TB) leukemia
[15] = tested on: HOP-62 NSCLC
[16] = tested on: HOP-92 NSCLC
[17] = tested on: HS 578T breast
[18] = tested on: HT29 colon
[19] = tested on: IGROV1 ovarian
[20] = tested on: K-562 leukemia
[21] = tested on: KM12 colon
[22] = tested on: LOX IMVI melanoma
[23] = tested on: M14 melanoma
[24] = tested on: MALME-3M melanoma
[25] = tested on: MCF7 breast
[26] = tested on: MDA-MB-231 breast
[27] = tested on: MDA-MB-435
[28] = tested on: MOLT-4 leukemia
[29] = tested on: NCI-H226 lung
[30] = tested on: NCI-H23 lung
[31] = tested on: NCI-H460 lung
[32] = tested on: NCI-H522 lung
[33] = tested on: NCI/ADR-RES ovarian
[34] = tested on: OVCAR-3 ovarian
[35] = tested on: OVCAR-4 ovarian
[36] = tested on: OVCAR-5 ovarian
[37] = tested on: OVCAR-8 ovarian
[38] = tested on: PC-3 prostate
[39] = tested on: RPMI-8226 leukemia
[40] = tested on: RXF 393 renal
[41] = tested on: SF-268 CNS
[42] = tested on: SF-295 CNS
[43] = tested on: SF-539 CNS
[44] = tested on: SK-MEL-2 melanoma
[45] = tested on: SK-MEL-28 melanoma
[46] = tested on: SK-MEL-5 melanoma
[47] = tested on: SK-OV-3 ovarian
[48] = tested on: SN12C renal
[49] = tested on: SNB-19 CNS
[50] = tested on: SNB-75 CNS
[51] = tested on: SR leukemia
[52] = tested on: SW-620 colon
[53] = tested on: T-47D breast
[54] = tested on: TK-10 renal
[55] = tested on: U251 CNS
[56] = tested on: UO-31 renal

Question: How did the GI50 [1] turn out when `CS(=O)(=O)c1ccc(Oc2cc(F)cc(C#N)c2)c2c1[C@H](O)C(F)(F)C2` was run?
Answer: > 100 µM

Question: What about the TGI [1] of the same compound?
Answer: > 100 µM

Question: What about the GI50 [2] of the same compound?
Answer: > 100 µM

Question: And the TGI [2]?
Answer: > 100 µM

Question: And the GI50 [3]?
Answer: > 100 µM

Question: And the TGI [3]?
Answer: > 100 µM

Question: And the GI50 [4]?
Answer: > 100 µM

Question: And the TGI [4]?
Answer: > 100 µM

Question: And the GI50 [5]?
Answer: > 100 µM

Question: What about the TGI [5] of the same compound?
Answer: > 100 µM

Question: And the GI50 [6]?
Answer: > 100 µM

Question: What about the TGI [6] of the same compound?
Answer: > 100 µM

Question: And the GI50 [7]?
Answer: 21.9 µM

Question: And the TGI [7]?
Answer: 47.5 µM

Question: And the GI50 [8]?
Answer: > 100 µM

Question: What about the TGI [8] of the same compound?
Answer: > 100 µM

Question: What about the GI50 [9] of the same compound?
Answer: > 100 µM

Question: What about the TGI [9] of the same compound?
Answer: > 100 µM

Question: What about the GI50 [10] of the same compound?
Answer: > 100 µM

Question: And the TGI [10]?
Answer: > 100 µM

Question: And the GI50 [11]?
Answer: > 100 µM

Question: And the TGI [11]?
Answer: > 100 µM

Question: And the GI50 [12]?
Answer: > 100 µM

Question: And the TGI [12]?
Answer: > 100 µM

Question: What about the GI50 [13] of the same compound?
Answer: > 100 µM

Question: And the TGI [13]?
Answer: > 100 µM

Question: And the GI50 [14]?
Answer: > 100 µM

Question: And the TGI [14]?
Answer: > 100 µM

Question: What about the GI50 [15] of the same compound?
Answer: > 100 µM

Question: What about the TGI [15] of the same compound?
Answer: > 100 µM

Question: What about the GI50 [16] of the same compound?
Answer: > 100 µM

Question: What about the TGI [16] of the same compound?
Answer: > 100 µM

Question: What about the GI50 [17] of the same compound?
Answer: > 100 µM

Question: What about the TGI [17] of the same compound?
Answer: > 100 µM

Question: And the GI50 [18]?
Answer: > 100 µM

Question: And the TGI [18]?
Answer: > 100 µM

Question: And the GI50 [19]?
Answer: > 100 µM

Question: And the TGI [19]?
Answer: > 100 µM

Question: And the GI50 [20]?
Answer: > 100 µM

Question: What about the TGI [20] of the same compound?
Answer: > 100 µM

Question: What about the GI50 [21] of the same compound?
Answer: > 100 µM

Question: What about the TGI [21] of the same compound?
Answer: > 100 µM

Question: What about the GI50 [22] of the same compound?
Answer: > 100 µM

Question: What about the TGI [22] of the same compound?
Answer: > 100 µM

Question: What about the GI50 [23] of the same compound?
Answer: > 100 µM

Question: And the TGI [23]?
Answer: > 100 µM

Question: What about the GI50 [24] of the same compound?
Answer: > 100 µM

Question: What about the TGI [24] of the same compound?
Answer: > 100 µM

Question: And the GI50 [25]?
Answer: > 100 µM

Question: What about the TGI [25] of the same compound?
Answer: > 100 µM

Question: And the GI50 [26]?
Answer: > 100 µM

Question: What about the TGI [26] of the same compound?
Answer: > 100 µM

Question: And the GI50 [27]?
Answer: > 100 µM

Question: What about the TGI [27] of the same compound?
Answer: > 100 µM

Question: What about the GI50 [28] of the same compound?
Answer: > 100 µM

Question: What about the TGI [28] of the same compound?
Answer: > 100 µM

Question: And the GI50 [29]?
Answer: > 100 µM

Question: What about the TGI [29] of the same compound?
Answer: > 100 µM

Question: And the GI50 [30]?
Answer: > 100 µM

Question: What about the TGI [30] of the same compound?
Answer: > 100 µM

Question: And the GI50 [31]?
Answer: > 100 µM

Question: What about the TGI [31] of the same compound?
Answer: > 100 µM

Question: And the GI50 [32]?
Answer: > 100 µM

Question: And the TGI [32]?
Answer: > 100 µM

Question: And the GI50 [33]?
Answer: > 100 µM

Question: What about the TGI [33] of the same compound?
Answer: > 100 µM

Question: And the GI50 [34]?
Answer: > 100 µM

Question: What about the TGI [34] of the same compound?
Answer: > 100 µM

Question: And the GI50 [35]?
Answer: > 100 µM

Question: What about the TGI [35] of the same compound?
Answer: > 100 µM

Question: And the GI50 [36]?
Answer: > 100 µM

Question: And the TGI [36]?
Answer: > 100 µM

Question: What about the GI50 [37] of the same compound?
Answer: > 100 µM

Question: What about the TGI [37] of the same compound?
Answer: > 100 µM

Question: And the GI50 [38]?
Answer: > 100 µM

Question: And the TGI [38]?
Answer: > 100 µM

Question: And the GI50 [39]?
Answer: > 100 µM

Question: What about the TGI [39] of the same compound?
Answer: > 100 µM

Question: What about the GI50 [40] of the same compound?
Answer: > 100 µM

Question: What about the TGI [40] of the same compound?
Answer: > 100 µM

Question: What about the GI50 [41] of the same compound?
Answer: > 100 µM

Question: What about the TGI [41] of the same compound?
Answer: > 100 µM

Question: What about the GI50 [42] of the same compound?
Answer: > 100 µM

Question: And the TGI [42]?
Answer: > 100 µM

Question: What about the GI50 [43] of the same compound?
Answer: > 100 µM

Question: And the TGI [43]?
Answer: > 100 µM

Question: And the GI50 [44]?
Answer: > 100 µM

Question: What about the TGI [44] of the same compound?
Answer: > 100 µM

Question: And the GI50 [45]?
Answer: > 100 µM

Question: What about the TGI [45] of the same compound?
Answer: > 100 µM

Question: And the GI50 [46]?
Answer: > 100 µM

Question: What about the TGI [46] of the same compound?
Answer: > 100 µM

Question: And the GI50 [47]?
Answer: > 100 µM

Question: What about the TGI [47] of the same compound?
Answer: > 100 µM

Question: What about the GI50 [48] of the same compound?
Answer: > 100 µM

Question: What about the TGI [48] of the same compound?
Answer: > 100 µM

Question: And the GI50 [49]?
Answer: > 100 µM

Question: And the TGI [49]?
Answer: > 100 µM

Question: What about the GI50 [50] of the same compound?
Answer: > 100 µM

Question: What about the TGI [50] of the same compound?
Answer: > 100 µM

Question: And the GI50 [51]?
Answer: > 100 µM

Question: And the TGI [51]?
Answer: > 100 µM

Question: What about the GI50 [52] of the same compound?
Answer: > 100 µM

Question: What about the TGI [52] of the same compound?
Answer: > 100 µM

Question: What about the GI50 [53] of the same compound?
Answer: > 100 µM

Question: What about the TGI [53] of the same compound?
Answer: > 100 µM

Question: And the GI50 [54]?
Answer: > 100 µM

Question: And the TGI [54]?
Answer: > 100 µM

Question: What about the GI50 [55] of the same compound?
Answer: > 100 µM

Question: And the TGI [55]?
Answer: > 100 µM

Question: What about the GI50 [56] of the same compound?
Answer: > 100 µM

Question: What about the TGI [56] of the same compound?
Answer: > 100 µM

From PubChem BioAssay (NCI)
